According to patent US20040171613A1, “Therapeutic agent for non-immediate type allergic diseases” (JAPAN TOBACCO INC., priority 2001, published 2004):

Key:
[1] = tested on: spontaneous scratching reaction; test: spontaneous scratching reaction of NC mouse; type: in vivo; conditions: NC/Jic mice; oral once a day for 3 weeks; vs solvent control
Excerpt: Currently, NC mouse is used as an animal model of atopic dermatitis. No dermatitis or scratching action is observed when the mouse is kept in an environment under the control of atmospheric microorganisms (in SPF environment). However, when the mouse is kept in a conventional environment, scratching action together with the onset of dermatitis can be observed from about week 8 and the symptom progresses into chronic symptom (J. Dermatol. Sci., 25, 20-28, 2001).
Preparation of solvent: MC was dissolved in tap water to prepare an aqueous 0.5% (w/v) MC solution.
As positive controls, betamethasone valerate (Sigma) and tacrolimus hydrate (extracted from Prograf (Fujisawa Pharmaceutical Co., Ltd.)) were similarly prepared to 1 mg/mL. Betamethasone valerate is one of the adrenocorticosteroids that is considered to be effective for the treatment of atopic dermatitis. Tacrolimus hydrate is a therapeutic agent of atopic dermatitis which is known as an immunosuppressor as described above.
The mice (A) were taken away from the cage and the NC/Jic mice were used at the age of 16 weeks.
Breeding conditions: The mice were fed with solid feed CA-1 (CLEA JAPAN INC.) ad libitum and tap water as drinking water ad libitum, and kept at a temperature of 22±2° C. and a humidity of 55±10% under lighting from 8:00 a.m. to 20:00 p.m.
From 10 days before the start of the experiment, the number of scratching behavior with hind legs of the mice was visually counted (for 20 minutes; once daily) over 2 days or 3 days. Among the plural mice counted, mice with 50 or more average scratching movements per day were selected for use.
The behavior of the mice was filmed under unattended environment with a video camera to count the scratching motion with hind legs for one hour. […] This series of scratching motions was counted as one scratching movement, and all such scratching movements were counted irrespective of scratched sites. The measurement was done on the starting day of administration, and one day, 3, 6, 10, 13, 17 and 20 days after the start of administration. […]

[2] = tested on: IgE-dependent allergic dermatitis; test: murine IgE-dependent allergic dermatitis (triphase ear swelling); type: in vivo, mouse; conditions: oral 10 mg/kg
Protocol: A model was produced by passive sensitization of a mouse with IgE and repeated antigen challenge to trigger triphase (early phase, late phase and very late phase) dermatitis (Pharmacology, 60(2), 97-104, February 2000). Relation of mast cells and T cells, as well as invasion of eosinophils in local inflammatory sites is confirmed in these reactions.
In addition, as positive controls, similarly to the test compound, 1 mg/mL ketotifen fumarate (Sigma) and 3 mg/mL pranlukast hydrate (extracted from Onon™ (Ono Pharmaceutical Co., Ltd.)) were prepared. Pranlukast hydrate is used as a leukotriene inhibitor for therapeutic agents for asthma and allergic rhinitis. Ketotifen fumarate is used as a chemical mediator release suppressor for asthma, allergic rhinitis, eczema, dermatitis, urticaria, dermal pruritis and allergic conjunctivitis.
During the period from the antigen application day to the start of the dosing of the test compound, in place of the test compound, only the solvent was orally administered at 10 mL/kg once a day.
FIGS. 4 to 6 show the results of each measurement.

antigen-induced asthma = test: antigen-induced immediate type asthma, late-type asthma and airway hypersensitivity in guinea pigs; type: in vivo, guinea pig; conditions: oral, compound A 10, 30, 100 mg/kg, positive controls 30 mg/kg
Protocol: The test compound was further diluted to 20, 6 and 2 mg/mL on needed basis. As positive controls, 6 mg/mL pranlukast hydrate (extracted from Onon™ (Ono Pharmaceutical Co., Ltd.)) and 6 mg/mL prednisolone (Sigma) were similarly prepared.
Sensitization: Using an ultrasonic nebulizer (NE-U12; OMRON), a 6-weeks old male Hartley guinea pig (Kudo, Co., Ltd.) was continuously inhaled with 1% OVA (ovalbumin; Sigma)-containing physiological saline for 10 minutes per day for 8 consecutive days.
Antigen challenge: One week after the last sensitization, 2% OVA was similarly inhaled for 5 minutes. 24 hours before and one hour after the OVA challenge, metyrapone-containing physiological saline (Aldrich, 10 mg/mL) was administered intravenously and 30 minutes before the OVA induction, pyrilamine-containing physiological saline (Sigma, 10 mg/kg) was administered intraperitoneally.
During the 8 days of sensitization, the test compound was given one hour before the sensitization. On the day of the antigen challenge, the test compound was given one hour before the challenge. As solvent controls, the vehicle was similarly administered in accordance with OVA induction and physiological saline induction.
As positive controls, pranlukast hydrate was administered one hour before the challenge, while prednisolone was administered 16 hours and 2 hours before the challenge. The animals were fasted 16 to 18 hours before the oral administration.
Using total respiratory function analysis system (Pulmos-I, M.I.P.S. Company), the pre value was measured. Subsequently, specific airway resistance (hereinafter referred to as sRaw) per 100 breathes was measured one minute and 2, 4, 5, 6, 7 and 8 hours after the OVA challenge, and further once between 22 to 26 hours after the challenge, respectively. The average was used as sRaw at each measured time point. The increment ratio of sRaw was calculated by the following formula.
Increment ratio of sRaw (%)=[(sRaw at each measured time point −sRaw before the challenge)/(sRaw before the challenge)]×100
Twenty-two to 26 hours after the antigen challenge, each of 0.0625, 0.125, 0.25, 0.5, 1 and 2 mg/mL solutions of physiological saline and acetylcholine (hereinafter referred to as ACh) were sequentially inhaled for one minute, until the sRaw was 2-fold or more to the baseline sRaw (sRaw after inhalation of physiological saline). Based on the ACh concentration and the concentration-resistance curve of sRaw, the ACh concentration required for the sRaw to achieve 100% increase from the baseline sRaw, i.e., PC100ACh was determined.

[3] = tested on: DNFB-induced allergic dermatitis; test: murine DNFB-induced allergic dermatitis model; type: in vivo, mouse
Protocol: The model is produced by repeating antigen sensitization and induction in mouse to induce contact dermatitis that involves increase of IgE antibody titer, i.e., inflammation similar to atopic dermatitis (J. Allergy Clin. Immunol., 100 (6Pt2), 39-44, December 1997).
Furthermore, by dilution, 0.1 mg/mL and 0.01 mg/mL suspensions were prepared. In addition, as positive controls, 0.5 mg/mL, 0.2 mg/mL and 0.1 mg/mL solutions of prednisolone (Sigma) were similarly prepared.
During the period from the next day of the third antigen application to the next day of the fifth antigen application, 10 mL/kg of the above-described test compound was administered once a day 15 times in total.
The difference of thickness was used as an index of swelling. FIGS. 1 and 2 show the results of the measurement at the fourth and fifth antigen applications, together with the results of the positive controls.
24 hours after the fifth antigen application, the spleen was harvested from the mouse exsanguinated under anesthesia with ether. The wet weight of the spleen was measured.

With `CCCCCOc1c(OC)ccc2cc(C(=O)NCc3ccc4c(c3)OCO4)c(=O)[nH]c12` [Compound A, N-(benzo[1,3]dioxol-5-ylmethyl)-7-methoxy-2-oxo-8-pentyloxy-1,2-dihydroquinoline-3-carboxamide] the “number of scratching movements” value [1] was “suppressed the number of scratching movements”, the “ear swelling, late phase” value ([2]; 24 hours after antigen application) was “significantly suppressed ear swelling” and the “ear swelling, very late phase” value ([2]; 8 days after antigen application) was “significantly suppressed ear swelling”. The “ear swelling, very late phase, delayed start of dosing” value ([2]; administration started after the induction of the late phase) was “effect of compound A in the very late phase was observed”, the “ear swelling, early phase” value ([2]; one hour after antigen application) was “significantly suppressed ear swelling” and the “airway hypersensitivity (PC100ACh)” value (antigen-induced asthma; 22 to 26 hours after antigen challenge) was “suppressed”. The “immediate type asthma response (sRaw immediately after antigen challenge)” value (antigen-induced asthma) was “suppressed”, the “late asthmatic response (sRaw over 4 to 8 hours after antigen challenge)” value (antigen-induced asthma) was “suppressed” and the spleen wet weight ([3]; 24 hours after the fifth antigen application, oral dosing) was “No decrease of spleen weight”. For the same molecule, the “ear swelling (increase of the thickness of the ear)” value ([3]; BALB/c mouse, oral once a day from day after third antigen application, 24 hours after fourth and fifth antigen application) was “significantly suppressed ear swelling”.
